In PubChem BioAssay (NCI):
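All cell lines were grown in 96-well plates and treated with compound for 48 hours. TGI denotes the concentration required for complete inhibition of growth.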

What was measured:
Assay in all cases: NCI tumour cell line growth inhibition, 48 h
CAKI-1 renal = system: CAKI-1 renal
HL-60(TB) leukemia = system: HL-60(TB) leukemia
LXFL 529 NSCLC = system: LXFL 529 NSCLC
HOP-92 NSCLC = system: HOP-92 NSCLC
A498 renal = system: A498 renal
HCC-2998 colon = system: HCC-2998 colon
RXF-631 renal = system: RXF-631 renal
UACC-62 melanoma = system: UACC-62 melanoma
KM20L2 colon = system: KM20L2 colon
U251 CNS = system: U251 CNS
TK-10 renal = system: TK-10 renal
M14 melanoma = system: M14 melanoma
SF-539 CNS = system: SF-539 CNS
NCI-H23 lung = system: NCI-H23 lung
SK-OV-3 ovarian = system: SK-OV-3 ovarian
M19-MEL melanoma = system: M19-MEL melanoma
ACHN renal = system: ACHN renal
K-562 leukemia = system: K-562 leukemia
DMS 114 small cell lung = system: DMS 114 small cell lung
SK-MEL-2 melanoma = system: SK-MEL-2 melanoma
UACC-257 melanoma = system: UACC-257 melanoma
MALME-3M melanoma = system: MALME-3M melanoma
UO-31 renal = system: UO-31 renal
SF-268 CNS = system: SF-268 CNS
786-0 renal = system: 786-0 renal
DLD-1 colon = system: DLD-1 colon
A549 NSCLC = system: A549 NSCLC
HT29 colon = system: HT29 colon
MOLT-4 leukemia = system: MOLT-4 leukemia
HOP-62 NSCLC = system: HOP-62 NSCLC
SNB-19 CNS = system: SNB-19 CNS
SNB-75 CNS = system: SNB-75 CNS
SR leukemia = system: SR leukemia
COLO 205 colon = system: COLO 205 colon
HCT-116 colon = system: HCT-116 colon
SF-295 CNS = system: SF-295 CNS
LOX IMVI melanoma = system: LOX IMVI melanoma
OVCAR-8 ovarian = system: OVCAR-8 ovarian
HOP-18 NSCLC = system: HOP-18 NSCLC
CCRF-CEM leukemia = system: CCRF-CEM leukemia
IGROV1 ovarian = system: IGROV1 ovarian
SW-620 colon = system: SW-620 colon
XF 498 CNS = system: XF 498 CNS
SN12C renal = system: SN12C renal
HCT-15 colon = system: HCT-15 colon
NCI-H460 lung = system: NCI-H460 lung
SK-MEL-5 melanoma = system: SK-MEL-5 melanoma
SNB-78 CNS = system: SNB-78 CNS
SK-MEL-28 melanoma = system: SK-MEL-28 melanoma
KM12 colon = system: KM12 colon
RPMI-8226 leukemia = system: RPMI-8226 leukemia
OVCAR-3 ovarian = system: OVCAR-3 ovarian
EKVX NSCLC = system: EKVX NSCLC
DMS 273 small cell lung = system: DMS 273 small cell lung
OVCAR-5 ovarian = system: OVCAR-5 ovarian
OVCAR-4 ovarian = system: OVCAR-4 ovarian
RXF 393 renal = system: RXF 393 renal
NCI-H522 lung = system: NCI-H522 lung
NCI-H226 lung = system: NCI-H226 lung

Measured: TGI

CCOC(=O)NC(=O)c1cn(CC(=O)NCC(=O)NCC(=O)N2CCN(CCn3c(C)nc(C(N)=O)c3N)CC2)c(=O)[nH]c1=O
not listed: RPMI-8226 leukemia | OVCAR-3 ovarian | EKVX NSCLC | DMS 273 small cell lung | OVCAR-5 ovarian | OVCAR-4 ovarian | RXF 393 renal | NCI-H522 lung | NCI-H226 lung
> 100 µM: all other assays above

CN1C(=O)C(C)(C)NS1(=O)=O
not listed: HOP-92 NSCLC | SR leukemia | HOP-18 NSCLC | NCI-H522 lung | NCI-H226 lung
> 100 µM: all other assays above

COc1cccc(-c2cc(=O)c3cc(C)c(C)c(C(=O)O)c3o2)c1
92.7 µM: SNB-75 CNS
not listed: CAKI-1 renal | SR leukemia | HOP-18 NSCLC | RXF 393 renal | NCI-H226 lung
> 100 µM: all other assays above

CCCCCCN(CCCCCC)C1=CC(=O)C(=O)c2ccccc21
38.3 µM: RXF-631 renal
32.4 µM: M14 melanoma
46.4 µM: K-562 leukemia
29.6 µM: SNB-19 CNS
36.6 µM: SF-268 CNS
31.8 µM: SK-MEL-28 melanoma
36.1 µM: TK-10 renal
30.8 µM: UACC-62 melanoma
34.8 µM: HCT-15 colon
33.2 µM: OVCAR-5 ovarian
32.3 µM: DLD-1 colon
31.1 µM: SNB-75 CNS | IGROV1 ovarian
29.2 µM: OVCAR-4 ovarian
34.6 µM: HL-60(TB) leukemia
27.7 µM: EKVX NSCLC
34.7 µM: DMS 273 small cell lung | NCI-H226 lung
31.4 µM: COLO 205 colon
28.7 µM: HOP-92 NSCLC
32.9 µM: HCT-116 colon
29.7 µM: OVCAR-8 ovarian | HOP-18 NSCLC
30.3 µM: 786-0 renal | SN12C renal
63.3 µM: SR leukemia
30.9 µM: SF-539 CNS | ACHN renal | SK-MEL-5 melanoma
29.3 µM: U251 CNS
4.99 µM: M19-MEL melanoma
51.3 µM: MOLT-4 leukemia
24.2 µM: NCI-H522 lung
28.6 µM: CAKI-1 renal | UACC-257 melanoma
60.2 µM: RPMI-8226 leukemia
35.6 µM: HCC-2998 colon | HT29 colon
41.6 µM: A498 renal
31.6 µM: SK-OV-3 ovarian
26.2 µM: UO-31 renal
40.5 µM: RXF 393 renal
36.5 µM: A549 NSCLC
35.8 µM: MALME-3M melanoma
27.8 µM: NCI-H23 lung
35.1 µM: SK-MEL-2 melanoma
14 µM: OVCAR-3 ovarian
33.4 µM: LXFL 529 NSCLC
37.6 µM: KM20L2 colon
27.3 µM: SW-620 colon
> 100 µM: CCRF-CEM leukemia
29.1 µM: SF-295 CNS
32.8 µM: HOP-62 NSCLC
51.8 µM: SNB-78 CNS
33.6 µM: NCI-H460 lung
31.5 µM: KM12 colon
22.1 µM: LOX IMVI melanoma
